Data published in patent US20230201240A1, “TREATMENT OF ADVANCED METASTATIC CANCER” (Can-Fite Biopharma Ltd., priority 2021, published 2023).
Entries after “also recorded” stand apart in the source; their conditions may differ. Like-named read-outs stand apart in the source and are kept apart here.

How the values were obtained:
[1] = system: advanced HCC and CPB cirrhosis; assay: Phase II randomized, double-blind, placebo-controlled study of namodenoson in advanced HCC with CPB cirrhosis (NCT02128958); format: in vivo, human
Excerpt: The diagnosis of HCC in subjects without underlying cirrhosis at the time of diagnosis required cytology and/or histology; for subjects with underlying cirrhosis at the time of diagnosis, HCC diagnosis was established according to the American Association for the Study of Liver Diseases practice guidelines algorithm [Marrero J. A., et al., Hepatology. 2018; 68:723-750]. For subjects who had tolerated sorafenib, ≥3 weeks of prior treatment was required, terminating at ≥2 weeks before study entry. Inclusion criteria included: ECOG PS≤2; having CPB cirrhosis (i.e., CP score 7-9); aspartate aminotransferase (AST) and alanine aminotransferase (ALT) levels ≤5 times the upper limit of normal (ULN); total bilirubin, ≤3.0 mg/dL; serum albumin, ≥2.8 g/dL; prothrombin time (PT), ≤6 s longer than control; serum creatinine, ≤2.0 mg/dL; absolute neutrophil count, […]; and platelet count, […]. Exclusion criteria included: the presence of hepatic encephalopathy; and gastrointestinal hemorrhage requiring transfusion occurring within the past 4 weeks.
This was a multicenter, randomized, double-blind, placebo-controlled clinical trial (ClinicalTrials.gov identifier NCT02128958). The trial was conducted at 15 sites in Israel, Europe, and the United States. Subjects were enrolled by the participating centers and were randomly assigned 2:1, using a central randomization schedule generated by an independent biostatistician with no stratification prior to randomization. Patients were randomized to either namodenoson (Cl-IB-MECA) 25 mg or matching placebo, administered orally every 12 hours until discontinuation due to intolerance, withdrawal of consent, or death. Though treatment was administered in a continuous manner, the treatment period was divided into 4-week cycles for the purpose of data recording. No crossover was initially allowed; however, by protocol amendment, patients that continued with blinded treatment were offered namodenoson (25 mg twice daily) upon unblinding of the treatment assignments. All study site personnel were blinded to patients' treatment throughout the study period. The study was approved by all relevant national regulatory authorities and local Ethics Committees/Institutional Review Boards. The study was conducted in accordance with the Declaration of Helsinki, and written informed consent was obtained from all the patients.
The primary endpoint of the study was overall survival (OS). Secondary endpoints were progression-free survival (PFS), overall response rate (ORR), disease control rate (DCR), and safety. […] 2019, 70:1262-1277]. Disease response assessment was evaluated locally by 2 independent blinded radiologists using Response Evaluation Criteria in Solid Tumors (RECIST) version 1.1 [Eisenhauer E. A., et al. Eur. J. Cancer. 2009; 45:228-247]. Tumor status was assessed at baseline and every 8 weeks thereafter by computed tomography scan or magnetic resonance imaging. Safety was monitored through assessments of AEs using the US National Cancer Institute's Common Terminology Criteria for Adverse Events (CTCAE) v4.03. Changes from baseline in vital signs, clinical laboratory parameters, electrocardiograms, physical examinations, and ECOG PS were also assessed. AFP levels were assessed at baseline and every 4 weeks thereafter, as were laboratory parameters associated with hepatic dysfunction and cirrhosis, such as serum ALT, AST, bilirubin, and albumin levels, PT, and international normalized ratio. ALBI scores were calculated from the albumin and bilirubin levels, as previously described [Johnson P. J., et al. J. Clin. Oncol. 2015; 33:550-558].
Power calculation determined that 75 deaths, assuming a hazard ratio of 0.5, would provide 80% power for the log-rank test at a significance level of 0.05. Primary efficacy analyses were performed on the ITT population. Descriptive statistics were used to summarize patient/tumor characteristics and safety. […]

[2] = system: advanced unresectable HCC; settings: cited from earlier work
[3] = system: HCC; settings: syngeneic orthotopic and xenograft models; cited from earlier work
[4] = 9 patients with Child-Pugh Score 9
[5] = 34 namodenoson-treated patients with post-baseline assessment
[6] = n = 34 with at least 1 post-baseline assessment
[7] = patients with Child-Pugh score 7
[8] = patients with Child-Pugh score 8

Q: For `CNC(=O)[C@H]1O[C@@H](n2cnc3c(NCc4cccc(I)c4)nc(Cl)nc32)[C@H](O)[C@@H]1O` [namodenoson, 2-chloro-N^6-(3-iodobenzyl)-adenosine-5′-N-methyluronamide], which treatment-related deaths ([1]; 25 mg BID oral) is on record?
A: Its treatment-related deaths is “No treatment-related deaths”.

Q: And the “median OS” value [1, 4]?
A: The value was 3.5 months.

Q: And the “median PFS” value [1, 4]?
A: Its value is 2.2 months.

Q: And the “PR achieved, number of patients” value [1, 5]?
A: Its value is 3 patients.

Q: What about the “PR achieved, share of patients” value [1, 5] of the same compound?
A: Its value is 9%.

Q: And the “patients who experienced CR” value [1, 5]?
A: Its value is “one patient”.

Q: And the “OS HR vs placebo” value ([1]; Child-Pugh score 7, 95% CI 0.45-1.43, p=0.46)?
A: The value was 0.81.

Q: What about the “PFS HR vs placebo” value ([1]; Child-Pugh score 7, 95% CI 0.51-1.55, p=0.67) of the same compound?
A: Its value is 0.89.

Q: And the “PFS HR vs placebo” value ([1]; Child-Pugh score 8, 95% CI 0.23-2.17, p=0.53)?
A: Its value is 0.71.

Q: And the “OS HR vs placebo” value ([1]; Child-Pugh score 8, 95% CI 0.28-2.77, p=0.83)?
A: Its value is 0.88.

Q: And the “survival of single patient in Open Label Extension” value ([1]; advanced metastatic HCC, CPB7, 25 mg orally twice a day)?
A: Its value is “survived five years”.

Q: What about the “response of single patient in Open Label Extension” value ([1]; advanced metastatic HCC, CPB7, 25 mg orally twice a day for 5 years) of the same compound?
A: Its value is “Complete Response (CR); also recorded: complete remission of the cancer”.

Q: And the “mean serum albumin levels and albumin-bilirubin (ALBI) scores” value ([1]; in vivo)?
A: Its value is “did not change significantly”.

Q: What about the “withdrawals and dose reductions attributable to namodenoson” value ([1]; in vivo, po) of the same compound?
A: The value was “no patients withdrew from the study and no dose reductions were attributable to namodenoson”.

Q: What about the “Best observed response (RECIST 1.1): CR” value [1, 6] of the same compound?
A: The value was 1 (2.94%) n (%).

Q: And the “Best observed response (RECIST 1.1): PD” value [1, 6]?
A: Its value is 14 (41.2%) n (%).

Q: What about the “Best observed response (RECIST 1.1): PR” value [1, 6] of the same compound?
A: Its value is 3 (8.8%) n (%).

Q: What about the “Best observed response (RECIST 1.1): SD” value [1, 6] of the same compound?
A: The value was 17 (50.0%) n (%).

Q: What about the “12-month OS rate” value ([1]; p=0.028 vs placebo, FIG. 1: patients with Child-Pugh Score 7, 25 mg BID) of the same compound?
A: Its value is 44%.

Q: What about the “median OS” value [1, 7] of the same compound?
A: The value was 6.9 months.

Q: What about the “median PFS” value [1, 7] of the same compound?
A: Its value is 3.5 months.

Q: And the OS [1, 8]?
A: Its OS is 3.3 months.

Q: What about the PFS [1, 8] of the same compound?
A: The PFS was 2.1 months.

Q: And the “clinical benefits of treatment (scan of chest, abdomen, pelvis)” value ([1]; single patient, advanced metastatic HCC, CPB7, 25 mg orally twice a day)?
A: The value was “disappearance of ascites, normal liver function, and the disappearance of peritoneal carcinomatosis”.

Q: What about the “progression-free survival (PFS) superiority over placebo” value ([1]; whole study population) of the same compound?
A: Its value is “no superiority”.

Q: And the “median OS” value ([1]; whole study population, 25 mg BID oral)?
A: Its value is 4.1 months.

Q: What about the “OS hazard ratio [HR] vs placebo” value ([1]; whole study population, 95% CI 0.49-1.38, p=0.46) of the same compound?
A: The value was 0.82.

Q: And the “Median overall survival (OS)” value ([2]; CPB patients (28%))?
A: Its value is 8.1 months.

Q: What about the safety and tolerability ([2]; in vivo) of the same compound?
A: Its safety and tolerability is “safe and well-tolerated”.

Q: And the “Median overall survival (OS)” value ([2]; whole study population, 67% failed prior sorafenib)?
A: The value was 7.8 months.

Q: And the “effect towards HCC” value [3]?
A: The value was “induces an apoptotic effect”.
